Reference: patent US12049469B2, “Compound and structural body for detecting hydrogen sulfide” (CANON KABUSHIKI KAISHA, priority 2020, dated 2024)

Assays:
[1] = Fluorescence intensity change of compound solution on addition of sodium sulfide (hydrogen sulfide donor) in phosphate-buffered saline; settings: for ΔF0 (0 mM sodium sulfide), amount of change in fluorescence intensity / ΔF (0.2 mM sodium sulfide), amount of change in fluorescence intensity F2−F1: compound 5 μM in 1× phosphate-buffered saline pH 7.4; for ΔF0 (0 mM sodium sulfide), amount of change in fluorescence intensity: 10 minutes; for ΔF (0.2 mM sodium sulfide), amount of change in fluorescence intensity F2−F1: 10 minutes after addition; for ΔF − ΔF0, difference in amount of change in fluorescence intensity in presence or absence of sodium sulfide: compound 5 μM in PBS pH 7.4, 0.2 mM vs 0 mM sodium sulfide; for Sensitivity: grade based on ΔF−ΔF0, A to C acceptable, D unacceptable
Description: The compound 1 was added to 1× phosphate-buffered saline (3 mL, pH 7.4) at a concentration of 5 μM. The fluorescence intensity of the solution was immediately measured with a fluorescence spectrophotometer F-4500 (manufactured by Hitachi High-Technologies Corporation). Sodium sulfide serving as a hydrogen sulfide donor was then added to the solution at 0.2 mM. After standing for 10 minutes, the fluorescence intensity of the solution was measured. The fluorescence intensity before the addition of sodium sulfide was denoted as F1, and the fluorescence intensity 10 minutes after the addition of sodium sulfide was denoted as F2. The amount of change in fluorescence intensity (ΔF) due to the addition of sodium sulfide was calculated using the formula F2−F1. The concentration of sodium sulfide was changed to 0 mM, and the amount of change in fluorescence intensity (ΔF0) of the solution was calculated in the same manner. The difference in the amount of change in fluorescence intensity (ΔF−ΔF0) in the presence or absence of sodium sulfide was calculated.
The evaluation is based on the following criteria in the exemplary embodiments of the present disclosure. A to C are acceptable levels, and D is an unacceptable level.

[2] = Behaviour of detection material in aqueous solution (precipitation, water solubility); type: physicochemical
Excerpt: To detect hydrogen sulfide and metabolites in an aqueous specimen, such as a biological sample, the present inventors have examined whether the compound disclosed as a detection material in Non Patent Literature 1 can detect hydrogen sulfide in neutral phosphate-buffered saline.

Structure (SMILES) | ΔF0 (0 mM sodium sulfide), amount of change in fluorescence intensity [1] | ΔF (0.2 mM sodium sulfide), amount of change in fluorescence intensity F2−F1 [1] | ΔF − ΔF0, difference in amount of change in fluorescence intensity in presence or absence of sodium sulfide [1] | Sensitivity [1] | Precipitate or aggregate formation in solution ([2]; neutral phosphate-buffered saline) | Water solubility (comparison) ([2]; compared with o-methyl fluorescein)
COC(=O)/C(C#N)=C/c1ccccc1C(=O)Oc1ccc2c(c1)Oc1cc(OC)ccc1C21OC(=O)c2ccccc21 (stereo not drawn) [Compound 2, reference compound] | −0.4 | 11.4 | 11.8 | D (ΔF−ΔF0 is less than 15) | a precipitate or aggregate of the detection material is formed in the solution | –
O=C1OC2(c3ccc(O)cc3Oc3cc(O)ccc32)c2ccccc21 [fluorescein] | – | – | – | – | – | higher water solubility than o-methyl fluorescein
COCCOCCOCCOCCNC(=S)Nc1ccc2c(c1)C(=O)OC21c2ccc(O)cc2Oc2cc(OC(=O)c3ccccc3/C=C(\C#N)C(=O)OCCCNC(=O)c3ccc(/N=N/c4ccc(N(C)C)cc4)cc3)ccc21 (stereo not drawn) [Compound 5] | 1.2 | 42.3 | 41.1 | A (ΔF−ΔF0 is 40 or more) | – | –
CN(C)c1ccc(/N=N/c2ccc(C(=O)NCCCOC(=O)/C(C#N)=C/c3ccccc3C(=O)Oc3cc4c(cc3F)C3(OC(=O)c5ccccc53)c3cc(F)c(O)cc3O4)cc2)cc1 (stereo not drawn) [Compound 6] | 13.3 | 34.0 | 20.7 | C (ΔF−ΔF0 is 15 or more and less than 25) | – | –
CN(C)c1ccc(/N=N/c2ccc(C(=O)NCCCOC(=O)/C(C#N)=C/c3ccccc3C(=O)Oc3cc4c(cc3Cl)C3(OC(=O)c5ccccc53)c3cc(Cl)c(O)cc3O4)cc2)cc1 (stereo not drawn) [Compound 4] | 4.9 | 10.3 | 5.4 | D (ΔF−ΔF0 is less than 15) | – | –
CN(C)c1ccc(/N=N/c2ccc(C(=O)NCCCOC(=O)/C(C#N)=C/c3ccccc3C(=O)Oc3ccc4c(c3)Oc3cc(O)ccc3C43OC(=O)c4c(Cl)c(Cl)c(Cl)c(Cl)c43)cc2)cc1 (stereo not drawn) [Compound 7] | 2.2 | 8.8 | 6.5 | D (ΔF−ΔF0 is less than 15) | – | –
CN(C)c1ccc(/N=N/c2ccc(C(=O)NCCCOC(=O)/C(C#N)=C/c3ccccc3C(=O)Oc3ccc4c(c3)Oc3cc(O)ccc3C43OC(=O)c4ccccc43)cc2)cc1 (stereo not drawn) [Compound 1] | 1.1 | 42.8 | 41.7 | A (ΔF−ΔF0 is 40 or more) | – | –
CN(C)c1ccc(/N=N/c2ccc(C(=O)NCCCOC(=O)/C(C#N)=C/c3ccccc3C(=O)Oc3ccc4c(c3)Oc3cc(O)ccc3C43OC(=O)c4cc(NC(=S)NCC(=O)O)ccc43)cc2)cc1 (stereo not drawn) [Compound 3] | 6.8 | 36.9 | 30.1 | B (ΔF−ΔF0 is 25 or more and less than 40) | – | –
